The subject of one assay is p21 promoter. Briefly: Cell-based p21 promoter luciferase screen with IC50 validation in H1299 cells with doxycycline-inducible p53. As to conditions: luciferase under p21 promoter, about 20 hours. The protocol: A cell-based screen was carried out to identify p21 inhibitors (FIG. 1a). H1299 cells (a cell line having a deletion in the p53 locus) were used. The H1299 cells contain a TetOn system for the inducible expression of p53. In addition, they contain luciferase under the control of the p21 promoter, which is activated by p53. Intracellular p53 expression was induced with doxycycline (0.5 μg/ml). Immediately thereafter, cells were exposed to test substances (5 μM) of the ChemBioNet collection (Leibniz Institut far Molekulare Pharmakologie, Berlin). About 20 hours later, cells were lysed and luciferase activity was determined. […]

For assay [1], the system named is wound healing in C57BL/6 mice. Briefly: Wound healing after skin biopsy in C57BL/6 mice, intradermal injection. It counts as in vivo. An excerpt: FIG. 4: I-18 treatment improves wound healing in 24 week C57BL/6 mice Skin-biopsies (4-5 mm) were taken at Day 0 (D0) and lesions were either treated with 118 inhibitor (right panel) or DMSO treated as control (left panel).
FIG. 5: Depicts a statistic evaluation of the wound healing area 0, 2, and 4 days after application of I18 or placebo to wound area. Skin biopsies (4-5 mm) were taken at Day 0 of young and old C57Bl6 mice and lesions were either treated with I18 inhibitor or DMSO. […] This trend further increased at Day 4.
Skin-biopsies (4-5 mm) were taken at Day 0 (D0) and lesions were either treated with I18 compound (FIG. 4, right panel) or DMSO as control (FIG. 4, left panel) by intradermal injection [50 μM].

In another assay the test system is p21-mRNA. Nature of the assay: p21-mRNA expression by qPCR in organs of Nothobranchius furzeri after intraperitoneal injection. It counts as in vivo. As to conditions: all tissues tested, 10 μM intraperitoneal, 48 h post treatment. The protocol:
FIG. 6: Decreased p21-mRNA expression in different organs of model organism Nothobranchius furzeri in response to I18-inhibitor treatment. p21-mRNA expression in different organs was analysed by quantitative PCR (qPCR) in response to treatment with the p21-inhibitor I18. Upper panel depicts the fold expression difference of p21-mRNA relative to tbp (TATA-box binding protein). Lower panel depicts fold expression of p21-mRNA relative to control (DMSO-treated animals). Note that there is an over 2-fold reduction in all tissues tested indicating the efficiency of p21-inhibitors across different species. 10 weeks old Nothobranchius furzeri were either injected intraperitoneal with I18-compound [10 μM] or with DMSO as control and sacrificed 48 h post treatment. RNA of various tissues was harvested and p21-mRNA expression was measured using quantitative PCR (qPCR). Fold expression was calculated relative to house-keeping gene tbp (TATA-box binding protein) (FIG. 6, upper panel) or control animals (FIG. 6, lower panel).

Where [2] appears, read: Homo sapiens, NCI-H1299, p53 induced with doxycycline 0.5 μg/ml.

The results in this text go back to patent US20150210717A1, “SPECIFIC INHIBITORS OF PROTEIN P21 AS THERAPEUTIC AGENTS” (BADEN-WÜRTTEMBERG STIFTUNG GMBH, priority 2012, published 2015).

Molecules are shown by their SMILES.

Turning to `O=C(Nc1ccc(OCC(F)(F)C(F)F)c(C(F)(F)F)c1)c1ccccc1O` [K2, 2-Hydroxy-N-[4-(2,2,3,3-tetrafluoropropoxy)-3-(trifluoromethyl)phenyl)benzamide], the IC50 in the assay on p21 promoter (setting [2]) was 1720 nM.

`Cc1c(Br)ccc(Nc2c([N+](=O)[O-])cc3c4c(cccc24)C(=O)N(CCO)C3=O)c1C` [M3, 6-(4-Bromo-2,3-dimethylanilino)-2-(2-hydroxyethyl)-5-nitrobenzo[de]isoquinoline-1,3-dione]: 3580 nM corresponded to half-maximal inhibition with p21 promoter (setting [2]) (IC50).

In the case of `COc1ccc(C2C(C#N)=C(N)Oc3c2ccc2ccccc32)cc1C` (centres unmarked) [A6, 2-amino-4-(4-methoxy-3-methylphenyl)-4H-benzo[h]chromene-3-carbonitrile], in the assay with p21 promoter (setting [2]), the IC50 is 1130 nM.

In turn, `CCOC(=O)c1ccc(Nc2nc3nonc3nc2Nc2cccc(C)c2C)cc1` [A13, Ethyl-4-[[5-(2,3-dimethylanilino)-[1,2,5]oxadiazolo[3,4-b]pyrazin-6-yl]amino]benzoate] registered an IC50 with p21 promoter (setting [2]) of 760 nM.

Regarding `COc1ccc(C(=O)Nc2nc(NC(=O)c3ccc(F)cc3)nn2-c2ccccc2)cc1` [E6, N-[5-[(4-Fluorobenzoyl)amino]-2-phenyl-1,2,4-triazol-3-y1]-4-methoxybenzamide], the midpoint of inhibition in the assay with p21 promoter (p53 induced with doxycycline 0.5 μg/ml), the IC50, lay at 490 nM.

`Cc1ccc2[nH]c3c(c2c1)CCCC3Nc1ccccc1` (centres unmarked) [I18, 6-methyl-N-phenyl-2,3,4,9-tetrahydro-1H-carbazol-1-amine]: the “wound healing in old treated mice versus p21-deficient mice” value in assay [1] (after 4 days, old mice) is “comparable to p21-deficient mice”. For the same molecule, the “wound healing of old mice compared to mock treated control mice of the same age” value in assay [1] (day 2, old C57Bl6 mice, trend further increased at day 4) is “significantly improved”. In addition, the “wound healing compared to DMSO treated control mice” value in assay [1] (day 2 and 4, skin biopsies 4-5 mm, intradermal injection 50 μM) is reported as “significantly improved”. In the assay on p21-mRNA, the “reduction of p21-mRNA expression relative to control (DMSO-treated animals)” value is recorded as “over 2 fold”. Also, half-maximal inhibition with p21 promoter (setting [2]) (IC50) was put at 170 nM.

Consider `CCc1ccc2c(c1)C1(NN=C(c3cccc4ccccc34)S1)C(=O)N2` (centres unmarked) [O6, 5-Ethyl-5′naphthalen-1-ylspiro[1H-indole-3,2′-3H-1,3,4-thiadiazole]-2-one], for which the IC50 with p21 promoter (setting [2]) is 3680 nM.

Turning to `NS(=O)(=O)c1ccc(CCNc2ncnc3c2c(-c2ccccc2)cn3-c2ccc(Br)cc2)cc1` [F3, 4-[2-[[7-(4-Bromophenyl)-5-phenylpyrrolo[2,3-d]pyrimidin-4-yl]amino]ethyl]benzenesulfonamide], half-maximal inhibition in the assay on p21 promoter (setting [2]) (IC50) required 6080 nM.

In the assay with p21 promoter (setting [2]), `CC(C)c1ccc(-c2c(C#N)c(N)n3c(nc4ccccc43)c2C#N)cc1` [N13, 1-Amino-3-(4-propan-2-ylphenyl)pyrido[1,2-a]benzimidazole-2,4-dicarbonitrile] yielded an IC50 of 1110 nM.

Consider `O=c1c2ccccc2c2nccc3c4cc(O)ccc4n1c32` [P21, 5-hydroxy-9H-benzo[c]indolo[3,2,1-ij][1,5]naphthyridin-9-one], for which, in the assay with p21 promoter (setting [2]), the IC50 was 1070 nM.
